Experimental data as given in US10385005B2, “Compositions and methods for glucose transport inhibition” (OHIO UNIVERSITY, priority 2010, dated 2019).

Tests used:
NL20 normal lung cells = assay: MTT cell death assay, NL20; format: cell-based, human; conditions: concentration = IC50 for each compound
Text: (§1) Comparative assays using WZB-27, WZB-115, as well as two known anticancer drugs, cisplatin and taxol, were completed. In Table 4, the percent cell death in cancer cell lines as well as normal cell lines is shown. […] Comparing the breast cancer cell line MCF7, WZB-27 and WZB-115 kill somewhat fewer cells relative to taxol but more than cisplatin. Both WZB-27 and WZB-115 kill fewer of the normal breast cell line MCF12A than taxol or cisplatin. WZB-27 kills fewer of the normal breast cell line MCF12A than taxol or cisplatin while WZB-115 kills no more normal cells than either cisplatin or taxol.
(§2) MTT assays are performed by the following well-established method. In a 96 well tissue culture plate 10,000 cells are plated in each well. The cells are incubated in presence or absence of the compounds for 18 h. 3-(4,5-Dimethylthiazol-2-yl)-2,5-diphenyltetrazolium bromide (MTT) is dissolved in PBS (10 mg/ml) and filter sterilized. Three hours before the end of the incubation 20 μL of MTT solution is added to each well containing cells in a 96-well plate. The plate is incubated in an incubator at 37° C. for 3 h. Media is aspirated gently and 200 μL of DMSO is added to each well to dissolve formazan crystals. The absorbance is measured at 550 nm for cell viability.

MCF7 breast cancer cells = assay: MTT cell death assay, MCF7; format: cell-based, human; conditions: concentration = IC50 for each compound
Text: as §1, §2

[1] = test system: MCF12A normal breast cells; assay: MTT cell death assay, MCF12A; format: cell-based, human; conditions: concentration = IC50 for each compound
Text: as §1, §2

H1299 lung cancer cells = assay: MTT cell growth / viability assay, H1299; format: cell-based, human; conditions: for % cell death: concentration = IC50 for each compound
Protocol: (§3) Briefly, H1299 cancer cells were treated with or without the compounds (30 μM) in triplicates for 10 min before the glucose uptake assay. Cellular glucose uptake was measured by incubating cells in the glucose-free KRP buffer with […] [^3H]2-deoxyglucose (specific activity, 40 Ci/mmol) for 30 min in the absence or presence of compounds. After the cells were washed with ice-cold PBS and lysed by 0.2 N NaOH, the cell lysates were transferred to scintillation counting vials and the radioactivity in the cell lysates was quantified by liquid scintillation counting. Cell growth measurements were performed using an MTT assay in hexads in a 96-well tissue culture plate with 5,000 cells plated in each well. The cells were incubated in presence or absence of the compounds (30 μM) for 48 h. After incubation, cell viabilities were assayed using a 96-well SPECTRAMAX™ absorbance/fluorescence plate reader (Molecular Devices).
as §2

RKO cells = assay: Glucose uptake assay (3H 2-DG), RKO; format: cell-based, human; conditions: 30 μM
Protocol: (§4) Cells were treated with α-PGG for 20 minutes before ^3H-labeled 2-DG. Thirty minutes after the addition of 2-DG, cells were harvested, lysed, and counted for their respective glucose uptake. Samples: 1. Mock; 2. […] WZB-25 (30 μM); 5. WZB-26 (30 μM); and 6. WZB-27 (30 μM).
(§5) Compounds 1a and 2a were initially prepared as potential anti-diabetic analogs of α-PGG (FIG. 1). Given the tight SAR of this class of compounds, it was hypothesized that a more rigid scaffold (i.e., a benzene ring) might enhance the activity.

[2] = test system: insulin-like glucose uptake stimulatory activity; assay: Insulin-like activity of PGG analogs; format: cell-based
H1299 cells = assay: Standard glucose uptake assay, H1299; format: cell-based, human; conditions: for Glucose transport inhibition (%) / glucose uptake inhibition compared with fasentin: H1299; for glucose uptake inhibition compared with fasentin: all compounds 30 μM, FIG. 22A
Protocol: as §3
Cancer cells are treated with or without the compounds for 10 min before the glucose uptake assay. Cellular glucose uptake will be measured by incubating cells in glucose-free RPMI 1640 with […] [^3H]2-deoxyglucose (specific activity, 40 Ci/mmol) for 30 min in the absence and presence of compounds. After the cells are washed with ice-cold PBS and lysed, the cell lysates will be transferred to scintillation counting vials and the radioactivity in the cell lysates is quantified by liquid scintillation counting.

MCF-7 cells = assay: Glucose uptake assay (3H 2-DG), MCF-7; format: cell-based, human; conditions: 30 μM
Protocol: as §4, §5

HeLa cells [3] = assay: Glucose uptake assay (3H 2-DG), HeLa; format: cell-based, human
Protocol: Cells were treated with α-PGG for 20 minutes before ^3H-labeled 2-DG. […] Samples: 1. Mock; 2. […] WZB-25 (30 μM); 5. WZB-26 (30 μM); and 6. WZB-27 (30 μM). Compounds 1a and 2a were initially prepared as potential anti-diabetic analogs of α-PGG (FIG. 1). Given the tight SAR of this class of compounds, it was hypothesized that a more rigid scaffold (i.e., a benzene ring) might enhance the activity. […] Error bars in FIG. 8 represent standard deviations of the measurements. Samples were done in triplicates and the experiment was repeated three times.

basal glucose transport = conditions: known glucose transport inhibitors, positive controls; cited from earlier work
[4] = test system: PARP protein (Caspase 3 substrate) in H1299 lung cancer cells; assay: PARP cleavage assay, H1299; format: cell-based, human
Text: A. Cell viability assay in RKO colon cancer cells with α-PGG, W25 (WZB-25), W27 (WZB-27), and C7 treatments. RKO cells contain high levels of p53 while RKO E6 cells contain much lower levels of p53. B. Apoptosis assay in H1299 lung cancer cells using cleaved PARP protein (89 kDa) as an indicator for Caspase 3 since PARP is a substrate of activated Caspase 3.
To determine if anti-cancer compounds W25 and W27 kill cancer cells using a p53 dependent or a p53-independent pathway, a cell killing assay was performed in RKO and RKO E6 cell lines. The difference between the two cell lines is that RKO cells contain much higher levels of p53 than RKO E6 cells.
Cells were harvested from plates, re-suspended with 3× sample buffer, and boiled for 5 min. Approximately […] of protein extract was loaded after protein concentration measurement by Pierce bicinchoninic acid (BCA) protein assay (Pierce Biotechnology, Inc. Rockford, Ill.). Samples were run on a 10% Bio-Tris NuPAGE gel (Invitrogen) and transferred to a polyvinylidene difluoride membrane (PVDF, Biorad). The membrane was incubated with antibodies specific to p53, or PARP, or β-actin. Specific protein bands were visualized after the development of film. Antibodies for p53 were purchased from Santa Cruz Biotechnology, Inc. (Santa Cruz, Calif., USA). […]

[5] = test system: RKO and RKO E6 cell lines; assay: Cell killing assay in RKO and RKO E6 cells; format: cell-based, human; conditions: high vs low p53
Text: A. Cell viability assay in RKO colon cancer cells. RKO cells contain high levels of p53 while RKO E6 cells contain much lower levels of p53. […] RKO cells have higher level of p53 while RKO-E6 is p53 deficient. ***p<0.001, **p<0.01. C.

[6] = test system: three different cancer cell lines; conditions: all compounds 60 μM, FIG. 22B
Protocol: Known basal glucose compound fasentin and compound inhibitors generated in house were compared side by side in both glucose uptake assay and cell viability (MTT) assay. Glucose uptake or cell viability of mock treated samples was arbitrarily assigned a value of 100%. A. Glucose uptake assay in H1299 cancer cells. Concentration for all compounds was 30 μM. B. Cell viability assays in three different cancer cell lines. Concentration for all compounds was 60 μM.
Fasentin is a published inhibitor of basal glucose transport and known GLUT1 inhibitor.

[7] = test system: RKO (colon), HeLa (cervical), and MCF-7 (breast) human cancer cells; assay: Cell viability (MTT) assay of α-PGG treated cancer cells; format: cell-based; conditions: FIG. 5A
Text: (§6) A. α-PGG treatment led to 70-80% reduction of cell viability as measured by a cell viability (MTT) assay. […] C. α-PGG treatment of HeLa cells led to a decrease in G1 phase cells but a significant increase (˜3-fold) in apoptotic cells as determined by an antibody-coupled flow cytometry study.

HeLa cells [8] = assay: Antibody-coupled flow cytometry study; format: cell-based, human; conditions: FIG. 5C
Text: as §6

HeLa cells [9] = assay: Apoptosis (ELISA) assay; format: cell-based, human; conditions: FIG. 5B

Compound: N.N.[Cl][Pt][Cl] [Cisplatin, cisplatin]
- % cell death (NL20 normal lung cells): 58.4 ± 7.0%
- % cell death (MCF7 breast cancer cells): 27.0 ± 1.9%
- % cell death [1]: 69.6 ± 2.9%
- % cell death (H1299 lung cancer cells): 26.4 ± 3.8%

Compound: COc1cccc(OC(=O)c2cc(O)c(O)c(O)c2)c1OC(=O)c1cc(O)c(O)c(O)c1 [Compound 1a]
- Glucose transport inhibitory activity (%) (RKO cells): 57.2 ± 4.4%
- insulin-like activity [2]: without any insulin-like activity
- Cell growth inhibition (%) (H1299 lung cancer cells; Table 2, 30 μM, 48 h): 36.0±6.1%
- Glucose transport inhibition (%) (H1299 cells; Table 2, 30 μM, untreated cells 0% inhibition): 58.4±6.3%
- % inhibition of basal glucose transport (H1299 cells; Table 3, 30 μM in H1299 cells, listed as WZB-26): 84.0 ± 1.9%
- Glucose transport inhibitory activity (%) (MCF-7 cells): 33.0 ± 0.5%
- Glucose transport inhibitory activity (%) (HeLa cells [3]; Hela, 30 μM): 46.3 ± 3.3%

Compound: CC(=O)CC(=O)Nc1ccc(Cl)c(C(F)(F)F)c1 [Fasentin, fasentin]
- IC50 (basal glucose transport): ≥ 50 µM

Compound: CC(=O)O[C@H]1C(=O)[C@@]2(C)[C@H]([C@H](OC(=O)c3ccccc3)[C@]3(O)C[C@H](OC(=O)[C@H](O)[C@@H](NC(=O)c4ccccc4)c4ccccc4)C(C)=C1C3(C)C)[C@]1(OC(C)=O)CO[C@@H]1C[C@@H]2O [Taxol, taxol]
- % cell death (NL20 normal lung cells): 53.8 ± 4.2%
- % cell death (MCF7 breast cancer cells): 61.4 ± 7.1%
- % cell death [1]: 73.7 ± 5.6%
- % cell death (H1299 lung cancer cells): 45.6 ± 4.9%

Compound: O=C(O[C@@H]1[C@@H](OC(=O)c2cc(O)c(O)c(O)c2)[C@@H]2OC[C@@H](O2)[C@H]1OC(=O)c1cc(O)c(O)c(O)c1)c1cc(O)c(O)c(O)c1 [WZB-25]
- PARP cleavage [4]: cleaved into a 89 kDa protein
- cell killing / viability RKO vs RKO E6 [5]: killed about the same amounts of RKO cells and RKO E6 cells
- dose dependence of basal glucose transport inhibition (HeLa cells [3]; HeLa, FIG. 8): dose-dependent manner

Compound: Oc1cccc(COc2cccc(OCc3cccc(O)c3)c2OCc2cccc(O)c2)c1 [WZB-131]
- cancer cell death compared with fasentin [6]: more cancer cell death than fasentin
- Cell growth inhibition (%) (H1299 lung cancer cells; Table 12): 12.9 ± 2.6%
- glucose uptake inhibition compared with fasentin (H1299 cells): stronger inhibition than fasentin
- Glucose transport inhibition (%) (H1299 cells; Table 12): 95.0 ± 1.6%

Compound: Oc1cccc(COc2ccc(Cl)cc2OCc2cccc(O)c2)c1 [WZB-133]
- cancer cell death compared with fasentin [6]: more cancer cell death than fasentin
- Cell growth inhibition (%) (H1299 lung cancer cells; Table 12): 14.3 ± 2.7%
- glucose uptake inhibition compared with fasentin (H1299 cells): stronger inhibition than fasentin
- Glucose transport inhibition (%) (H1299 cells; Table 12): 91.2 ± 0.8%

Compound: O=c1cc(-c2ccc(O)cc2)oc2cc(O)cc(O)c12 [apigenin]
- IC50 (basal glucose transport): ≥ 60 µM

Compound: O=C(OC[C@H]1O[C@@H](OC(=O)c2cc(O)c(O)c(O)c2)[C@H](OC(=O)c2cc(O)c(O)c(O)c2)[C@@H](OC(=O)c2cc(O)c(O)c(O)c2)[C@@H]1OC(=O)c1cc(O)c(O)c(O)c1)c1cc(O)c(O)c(O)c1 [α-PGG, penta-galloyl-glucose]
- reduction of cell viability [7]: 70-80%
- increase in apoptotic cells (HeLa cells [8]): ~3 fold
- increase in apoptosis (HeLa cells [9]): more than 2 fold
- concentration at which glucose transport inhibition starts (HeLa cells [3]; HeLa, 20 min preincubation): 5 µM
